# Results published in US12714696B2, “Low dose fluralaner compositions for protection against parasitic invertebrate pest” (VIRBAC, priority 2019, dated 2026).
# Like-named read-outs stand apart in the source and are kept apart here.
# How the values were obtained:
# [1] = cited from earlier work
# C. felis fleas = assay: Efficacy against fleas on dogs, oral 250/35/600 μg/kg study; assay type: in vivo; conditions: Day 3, following 3 consecutive doses of 250 μg/kg per day
# Description: The second objective is to investigate the pharmacodynamics between the fluralaner plasmatic dose and the effectiveness against ticks. • IVP: Investigational Veterinary Product, is pure Fluralaner+DMSO (250 μg/kg on Days 0 to 3 (0.25 mL/kg), then 35 μg/kg on Days 4 to 9 (0.35 mL/kg), then 600 μg/kg on Day 11) • Control product is DMSO (0.25 mL/kg on Days 0 to 3, then 0.35 mL/kg on Days 4 to 9)
# Dogs were infested with approximately 50 (±4) viable, adult, unfed R. sanguineus ticks on Days 1, 3, 5, 8, 10, 12, 16, 22, 26 and 30 to assess efficacy. Ticks will be removed and counted on Days 3, 5, 7 (48 hours±2 hours after infestation) and 9, 11, 13, 17, 24, 27, 32 (24 hours±2 hours after infestation). […] Fleas will be removed and counted on Days −5 (+1 day) and 3 (24 hours±2 hours after infestation).
# The efficacy against ticks and fleas were calculated for the study groups at each assessment day according to the formulas given below.
# Efficacy was calculated as follows: Efficacy (%)=100×(Mc−Mt)/Mc, where: • Mc=Mean number of live ticks (categories 1 to 2) or live fleas on dogs in the negative control group (group 1) at a specific time point. • Mt=Mean number of live ticks (categories 1 to 2) or live fleas on dogs in the IVP group (group 2) • at a specific time point.
# [2] = Adverse event observation, oral study against fleas; assay type: in vivo, beagle dogs; conditions: oral 35 μg/kg Days 0-3, dogs
# Description: Dogs were observed hourly±15 minutes for four hours after administration on Day 0 and once daily two hours±15 minutes after Investigational Veterinary Product or control product administration on Days 1, 2 and 3. Observations were conducted for each individual dog.
# [3] = cited from earlier work; remark: listed apart in the source
# [4] = plasma pK in dogs; fluralaner 56 mg/kg; cited from earlier work
# [5] = Pharmacokinetic profile of Bravecto spot-on after single topical administration on dogs; conditions: dog, in vivo, topical or ocular, 6250 ug/kg, Bravecto spot-on single topical 6250 μg/kg
# Description: The objective of the study is to determine the pharmacokinetic profile of the Bravecto spot-on containing fluralaner after a single topical administration on dogs at a dose rate of 6250 μg/kg after feeding. • IVP: Investigational Veterinary Product, is Bravecto spot-on containing fluralaner at a dose rate of 6250 μg/kg (22.3112 μL/kg) on Day 0
# Ten dogs were enrolled in the study of which six were included meeting the inclusion criteria. In addition, veterinary examinations (Day −14 and Day −2±one day), general health observations (all days) and weighing of all dogs (Day −2±one day) were performed.
# On Day 0, all dogs will receive the IVP at a dose rate of 6250 μg/kg. The quantity of IVP to be administered will be calculated according to the dog's individual body weight. Dogs will be observed hourly (±15 minutes) for four hours after administration on Day 0.
# Blood specimens will be collected from all dogs on Days −14 and −7 for clinical chemistry and hematology for inclusion and for pharmacokinetic analysis prior to IVP treatment on Day 0 and on Days 1 (+24 hours), 3 (+72 hours), 5 (+120 hours), 7 (+168 hours), 10 (+240 hours), 14 (+336 hours), 21 (+504 hours), 28 (+672 hours), 35 (+840 hours), 42 (+1008 hours), 49 (+1176 hours), 56 (+1344 hours) and 60 (+1440 hours).
# The PK parameters of fluralaner were calculated using a non-compartmental approach.
# The following rules were applied for the calculation of the PK parameters: • All the plasma concentrations, validated by the bioanalytical laboratory, were used for the PK analysis. • The actual blood sampling times were used throughout. • Concentrations below the Limit of Quantification (LOQ) value were considered as zero from time zero (pre-dose) up to the time at which the first quantifiable concentration above the LOQ value was observed. Concentrations below the LOQ value between two quantifiable concentrations were considered as missing. Trailing concentrations below the LOQ value were not used in calculations.
# Cmax the observed maximum concentration in plasma measured after dosing.
# tmax the time at which Cmax was apparent.
# λz the terminal rate constant (λz) was estimated by log-linear regression analysis on data points visually assessed, to be on the terminal log-linear phase. For the slope of the terminal elimination phase to be accepted as reliable, the following criteria were used: • the terminal data points were apparently randomly distributed about a single straight line (on visual inspection), • a minimum of three data points, including the last measured data point and excluding Cmax, were available for the regression.
# t1/2 the terminal plasma half-life (t1/2) was calculated according to the following equation: […]
# AUC0-t the area under the concentration-time curve from time zero (pre-dose) to the time of last quantifiable concentration (t) was calculated using a linear trapezoidal method.
# [AUC0-∞=AUC0-t+(Ct/λz)], where Ct was the observed concentration of drug for the last sample on the PK profile in which the drug was detected, and λz was as defined above.
# The extrapolated area under the curve, expressed as a percentage of the total area, AUCinf, was also calculated as: Area Extra (%)=(AUC0-∞−AUC0-t)/AUC0-∞*100%.
# [6] = Intravenous 12.5 mg/kg, single, dogs, n = 6, mean ± standard deviation
# [7] = Oral 12.5 mg/kg, single, dogs, n = 6, mean ± standard deviation
# [8] = Oral 25.0 mg/kg, single, dogs, n = 6, mean ± standard deviation
# [9] = Oral 50.0 mg/kg, single, dogs, n = 6, mean ± standard deviation
# [10] = literature data (Table 6; equals Oral 50.0 mg/kg of Table 5)
smiles,measurement,setting,value
"Cc1cc(C2=NOC(c3cc(Cl)cc(Cl)c3)(C(F)(F)F)C2)ccc1C(=O)NCC(=O)NCC(F)(F)F (stereo not drawn) [fluralaner, Fluralaner]",AUC(0-d112),[1]; [6],87198 ± 11835 ng·days/mL
same,AUC(0→∞),[1]; [6],87779 ± 12004 ng·days/mL
same,Cl,[1]; [6],5.83 ± 0.83 mL/h/kg
same,Cmax,[1]; [6],7109 ± 908 ng/mL
same,MRT,[1]; [6],20 ± 3 days
same,Vz,[1]; [6],3.1 ± 0.5 L/kg
same,t1/2,[1]; [6],15 ± 2 days
same,tmax,"[1]; Oral 12.5 mg/kg, single, dogs, n = 6, Median",1 (range 0.08-2) day
same,AUC(0-d112),[1]; [7],29665 ± 13858 ng·days/mL
same,AUC(0→∞),[1]; [7],29922 ± 13808 ng·days/mL
same,Cmax,[1]; [7],2144 ± 860 ng/mL
same,MRT,[1]; [7],19 ± 2 days
same,t1/2,[1]; [7],13 ± 1 days
same,tmax,"[1]; Oral 25.0 mg/kg, single, dogs, n = 6, Median",1 (range 1-2) day
same,AUC(0-d112),[1]; [8],46115 ± 18932 ng·days/mL
same,AUC(0→∞),[1]; [8],46416 ± 18929 ng·days/mL
same,Cmax,[1]; [8],3948 ± 1734 ng/mL
same,MRT,[1]; [8],15 ± 4 days
same,t1/2,[1]; [8],12 ± 3 days
same,tmax,"[1]; Oral 50.0 mg/kg, single, dogs, n = 6, Median",1 (range 0.17-3) day
same,AUC(0-d112),[1]; [9],70171 ± 26412 ng·days/mL
same,AUC(0→∞),[1]; [9],70531 ± 26529 ng·days/mL
same,Cmax,[1]; [9],5419 ± 2086 ng/mL
same,MRT,[1]; [9],17 ± 3 days
same,t1/2,[1]; [9],14 ± 1 days
same,AUCtot,[1]; [10],70531 µg·days/L
same,Cmax,[1]; [10],5419 ng/mL
same,t1/2,[1]; [10],14 days
same,tmax,[1]; [10],1 days
same,efficacy against fleas,C. felis fleas,92%
same,Adverse Events as a result of the product,[2],No Adverse Events
same,hepatic clearance,[3]; dogs and cats,low hepatic clearance
same,AUC in cats relative to dogs,"[3]; topical and iv, 12.5 to 50 mg/kg dogs, 20 to 80 mg/kg cats",about half the AUC in dogs
same,interference between fluralaner and ivermectin,[4],absence of interference
same,AUC(0-t),"[5]; dogs without 86D 6FA, n=5, read-out: fluralaner AUC0-t, Mean",181 µg·h/mL
same,Cmax,"[5]; dogs without 86D 6FA, n=5, read-out: fluralaner Cmax, Mean",238 ng/mL
same,half-life,"[5]; dogs without 86D 6FA, n=5, read-out: fluralaner t½ (terminal half-life), Mean (converted)",16.2 days
same,Cmax,"[5]; dogs, read-out: maximum concentration (Cmax), range",161 to 353 ng/mL
same,half-life,"[5]; dogs, read-out: terminal half-life, range",14.2 to 20.4 days
